{"source": "patent US9487492B2", "about": "“Dibenzothiazepine derivatives and their use in the treatment of CNS disorders” (NUMEDICUS LIMITED, priority 2011, dated 2016)", "key": {"[1]": {"system": "cryopreserved beagle dog hepatocytes", "test": "Metabolic stability in cryopreserved beagle dog hepatocytes", "format": "in vitro ADME", "conditions": "Example 2 versus tianeptine", "experimental": "(§1) The metabolic stability of the compounds of the invention was evaluated in-vitro using cryopreserved beagle dog hepatocytes, as described in more detail hereinafter in the Experimental and Preparations section.\n(§2) The test compound (1 μM) was incubated with cryopreserved beagle dog hepatocytes at 3 million cells per ml, in 300 μL of Leibovitz's medium for a total period of 90 min. During this period, 25 μL aliquots were taken at 1, 10, 30, 50, 70 & 90 minutes and quenched in acetonitrile. Quenched samples were centrifuged to pellet the precipitated protein, and supernatant removed for LC-MS-MS (high performance liquid chromatography coupled to a tandem mass spectrometer) analysis to quantify the amount of the parent test compound remaining. The first order elimination rate constant (k) was determined from a plot of natural log of parent test compound remaining versus time, and used to calculate a metabolic stability half-life (T1/2), where T1/2=Ln2/k where k=elimination rate constant."}, "[2]": {"test": "Metabolic stability in cryopreserved beagle dog hepatocytes", "format": "in vitro ADME", "conditions": "beagle, dog, cryopreserved hepatocytes, test compound 1 μM, 3 million cells per ml, 90 min incubation", "experimental": "as §1, §2"}, "[3]": {"test": "PPB (compound bound to proteins)", "conditions": "plasma"}, "[4]": {"system": "hippocampal CA1 pyramidal neurones", "test": "Whole cell recording of EPSC amplitude in hippocampal slices", "format": "cell-based, male Sprague-Dawley rats", "experimental": "The stimulatory activity of the compounds of the invention on the central nervous system was evaluated in-vitro by recording the excitatory postsynaptic current (EPSC) amplitude in stimulated hippocampal CA1 pyramidal neurones from slices of male Sprague-Dawley rats, as described in more detail hereinafter in the Experimental and Preparations section.\nMale Sprague-Dawley rats, 15 to 20 days old at the time of surgery, were used in this study. On the day of the experiment, animals were terminally anaesthetized using isofluorane, cervically dislocated, and decapitated. The brain was removed and 400 μm thick parasagittal brain slices prepared using a Leica VT1000S. Slices were maintained in an artificial cerebrospinal fluid (ACSF) of the following composition (in mM, aqueous solution): 127 NaCl; 1.9 KCl; 1.2 KH2PO4; 2.4 CaCl2; 1.3 MgCl2; 26 NaHCO3; and, 10 D-glucose, bubbled with a mixture of 95% O2/5% CO2, at room temperature for 1 hour after slicing before commencing electrophysiological recordings. […]"}}}
{"compound": "CN1c2ccccc2C(NCCCCOCC(=O)O)c2ccc(Cl)cc2S1(=O)=O", "note": "(stereo not drawn) [Example 2, 2-(4-((3-chloro-6-methyl-5,5-dioxido-6,11-dihydrodibenzo[c,f][1,2]thiazepin-11-yl)amino)butoxy)acetic acid]", "values": [{"measurement": "metabolic stability half life compared with tianeptine", "setting": "[1]", "value": "more than 10 times"}, {"measurement": "half-life at 1 μM", "setting": "[2]; T1/2=Ln2/k", "value": 34.4, "unit": "h"}, {"measurement": "hepatocyte CLint at 1 μM", "setting": "[2]; read-out: Clint (intrinsic clearance)", "value": 0.3, "unit": "µL/min/1e6 cells"}, {"measurement": "fraction unbound", "setting": "[3]", "value": 0.18}, {"measurement": "increase of control EPSC amplitude", "setting": "[4]; 10 μM bath applied, percentage of the control, mean±S.E.M (n=6)", "value": "224.67±34.27", "unit": "%"}, {"measurement": "effect on excitatory transmission in CA1 region of hippocampus (FIG. 1)", "setting": "[4]; representative electrophysiological recording, 10 μM", "value": "facilitates excitatory transmission"}]}
